Assay results from US20240294566A1, “ESTROGEN RECEPTOR BETA SELECTIVE LIGANDS” (Or-Genix Therapeutics, Inc., priority 2016, published 2024).

Assays:
ERβ [1] = target: T1, ERβ (Homo sapiens, UniProt Q92731); experiment: Homogeneous in vitro functional assay, coactivator recruitment (FRET); type: biochemical; details: for selectivity for ERβ: ERβ over ERα, functional assay
Procedure: (§1) Structures 15 and 15′ were tested in a functional assay for ERβ and ERα as described in Liu J. et al. A Homogeneous in Vitro Functional Assay for Estrogen Receptors: Coactivator Recruitment. Mol Endocrinology 17, 346-355 (2003). Briefly, a homogeneous in vitro functional assay for measuring ligand-dependent transactivation function of ERαa and ERβ was used to measure selectivity of structures 15 and 15′ as agonists for the two classes of receptors. Briefly, agonist binding of Structures 15 and 15′ were assessed by measuring Fluorescence Resonance Energy Transfer (FRET) between europium that is associated with ligand binding domains of ERα and ERβ, and allophycocyanine that is associated with co-activator peptide that is recruited to the LBD in response to agonist binding.
Target sequence in this assay (Q92731 264-498 limits assumed): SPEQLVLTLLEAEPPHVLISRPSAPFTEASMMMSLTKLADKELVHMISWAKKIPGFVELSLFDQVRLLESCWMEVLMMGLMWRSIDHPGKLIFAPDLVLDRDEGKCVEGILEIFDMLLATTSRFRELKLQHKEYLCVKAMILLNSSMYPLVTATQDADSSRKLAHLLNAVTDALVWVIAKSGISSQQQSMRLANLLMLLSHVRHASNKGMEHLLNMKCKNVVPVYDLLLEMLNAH

ERα [2] = target: T2, ERα (Homo sapiens, UniProt P03372); experiment: as above; type: biochemical; details: FIG. 1
T2 sequence (P03372 311-547 limits assumed): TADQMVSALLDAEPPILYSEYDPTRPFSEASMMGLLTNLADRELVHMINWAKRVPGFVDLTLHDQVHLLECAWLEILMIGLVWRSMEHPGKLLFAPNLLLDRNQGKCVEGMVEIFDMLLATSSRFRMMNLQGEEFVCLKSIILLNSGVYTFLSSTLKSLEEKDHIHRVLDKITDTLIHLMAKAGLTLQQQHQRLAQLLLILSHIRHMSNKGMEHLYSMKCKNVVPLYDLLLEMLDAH
Procedure: as §1

ERα [3] = target: T3, ERα (Homo sapiens, UniProt P03372); experiment: Dual estrogen receptor TR-FRET functional assay; type: biochemical; details: dual ER TR-FRET assay
T3 sequence (P03372 1-595): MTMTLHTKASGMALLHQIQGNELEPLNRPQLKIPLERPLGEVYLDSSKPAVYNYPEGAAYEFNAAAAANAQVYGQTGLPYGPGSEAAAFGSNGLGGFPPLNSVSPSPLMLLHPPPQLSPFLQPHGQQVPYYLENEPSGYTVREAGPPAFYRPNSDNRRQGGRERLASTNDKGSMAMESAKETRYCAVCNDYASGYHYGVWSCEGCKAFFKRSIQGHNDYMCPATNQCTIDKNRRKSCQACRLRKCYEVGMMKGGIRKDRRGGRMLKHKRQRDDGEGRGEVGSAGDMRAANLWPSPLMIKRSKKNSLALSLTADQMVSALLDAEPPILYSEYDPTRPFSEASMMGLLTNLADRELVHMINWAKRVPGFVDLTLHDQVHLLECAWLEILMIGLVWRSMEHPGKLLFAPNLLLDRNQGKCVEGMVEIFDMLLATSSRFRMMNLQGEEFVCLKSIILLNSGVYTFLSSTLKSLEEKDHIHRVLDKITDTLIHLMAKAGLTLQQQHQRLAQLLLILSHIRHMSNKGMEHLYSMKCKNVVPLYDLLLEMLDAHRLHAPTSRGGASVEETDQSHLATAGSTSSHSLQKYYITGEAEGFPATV
Procedure: (§2) Structures 3 and 3' were tested in a functional assay for ERβ and ERα as described in […]., Puetter V., Otto C. Parczyk K. & Bader B. A Dual Estrogen Receptor TR-FRET Assay for Simultaneous Measurement of Steroid Site Binding and Coactivator Recruitment. J Biomolec Screening 15, 268-278 (2010). Briefly, agonist binding of Structures 3 and 3' to ERα and ERβ were assessed by a dual estrogen receptor TR-FRET assay.

ERβ [4] = target: T1, ERβ; experiment: Dual estrogen receptor TR-FRET functional assay; type: biochemical; details: dual ER TR-FRET assay, FIG. 3
Procedure: as §2
Target sequence in this assay (Q92731 whole entry, the tested form may be a part): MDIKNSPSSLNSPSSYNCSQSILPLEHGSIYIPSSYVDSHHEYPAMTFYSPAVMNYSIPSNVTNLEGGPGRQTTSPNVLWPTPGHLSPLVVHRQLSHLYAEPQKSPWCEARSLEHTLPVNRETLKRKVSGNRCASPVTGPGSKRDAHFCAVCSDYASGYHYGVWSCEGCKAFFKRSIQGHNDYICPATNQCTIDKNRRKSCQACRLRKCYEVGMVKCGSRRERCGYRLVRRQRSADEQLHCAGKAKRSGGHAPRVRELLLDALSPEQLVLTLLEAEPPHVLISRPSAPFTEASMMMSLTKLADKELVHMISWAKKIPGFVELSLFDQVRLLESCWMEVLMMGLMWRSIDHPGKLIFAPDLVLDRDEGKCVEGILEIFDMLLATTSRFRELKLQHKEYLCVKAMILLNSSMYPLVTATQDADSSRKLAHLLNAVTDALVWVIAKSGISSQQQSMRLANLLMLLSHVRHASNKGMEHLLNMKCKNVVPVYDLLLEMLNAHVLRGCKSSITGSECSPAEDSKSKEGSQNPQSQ

ERα [5] = target: T3, ERα; experiment: Binding assay, inhibition of [3H] estradiol binding to hER
Procedure: (§3) Structures 3 and 3' were tested in a binding assay for ERβ and ERα as described in Obourn […]. & Notides A. C. Hormone-and DNA-Binding Mechanisms of the Recombinant Human Estrogen Receptor. Biochemistry 32, 6229-6236 (1993). Briefly, agonist binding of Structure 3 and Structure 3' to ERα and ERβ were assessed by Scatchard analysis measuring inhibition of [^3H] estradiol binding to hER by Structure 3 and 3'.

ERβ [6] = target: T1, ERβ; experiment: as above; details: FIG. 2
Procedure: as §3
Target sequence in this assay (Q92731 whole entry, the tested form may be a part): as above

Row | EC50 (ERβ [4]) | IC50 (ERβ [6]) | SMILES | selectivity for ERβ (ERβ [1]) | also measured
1 |  |  | COC(=O)CC[C@H]1C[C@H]2[C@@H]3CCc4cc(O)ccc4[C@H]3CC[C@]2(C)[C@H]1O [Compound 15] | > 10 fold | EC50 (ERβ [1]; functional coactivator recruitment FRET assay, FIG. 1): ~10 µM; EC50 (ERα [2]): > 100 µM
2 |  |  | COC(=O)CC[C@@H]1C[C@H]2[C@@H]3CCc4cc(O)ccc4[C@H]3CC[C@]2(C)[C@H]1O [Compound 15′, reference compound] | ~2 fold | 
3 | 3 µM | 100 nM | CCOC(=O)[C@H]1C[C@H]2[C@@H]3CCc4cc(O)ccc4[C@H]3CC[C@]2(C)[C@H]1O [Structure 3] |  | EC50 (ERα [3]; FIG. 3A): 1080 nM; IC50 (ERα [5]; FIG. 2): 78 nM
4 | > 10 µM | 140 nM | CCOC(=O)[C@@H]1C[C@H]2[C@@H]3CCc4cc(O)ccc4[C@H]3CC[C@]2(C)[C@H]1O [Structure 3′, reference compound] |  | EC50 (ERα [3]; FIG. 3B): 5.92 nM; IC50 (ERα [5]; FIG. 2B): 1.46 nM
